Measured values from paper PMC9501280, “Anti-Inflammatory Activity of Soluble Epoxide Hydrolase Inhibitors Based on Selenoureas Bearing an Adamantane Moiety” (International Journal of Molecular Sciences, 2022).
Values after ≈ are worked out from the molar mass of the structure shown. Where two headings read alike, the source gives them in different places.

Key:
[1] = LDH release cytotoxicity on peritoneal macrophages; assay type: cell-based, mice; settings: male, C57bl/6j, mouse, 24 h incubation, read-out: LDH CC50 ± SE
Method: (§1) Peritoneal macrophages (PM) were isolated from the peritoneal exudate of 30 male C57bl/6j mice. To accumulate PM, 1 mL of 3% peptone solution was injected intraperitoneally. After 3 days, the mice were euthanized by cervical dislocation. Cells of peritoneal exudate were obtained by aseptic washing of the abdominal cavity with 5 mL of sterile Hanks’s solution (+4–6 °C) without calcium and magnesium ions. The total number and viability of cells were assessed in a Goryaev counting chamber (Russia) with a 0.4% trypan blue staining (Sigma-Aldrich, St. Louis, MO, USA). The cell concentration was adjusted to 1.0 × 10^6 cells/mL in DMEM (Gibco) supplemented with 2 mM L-glutamine (Gibco), 10% heat-inactivated fetal bovine serum (BioClot, Passau, Germany), 100 U/mL penicillin and […] streptomycin (Gibco) and plated 200 μL/well in 96-well transparent plates (SPL Life Sciences Co., Ltd., Pochon, Korea). After 2 h at 37 °C in a humidified atmosphere with 5% CO2, wells were washed to remove nonadherent cells. After 24 h of incubation, 20 μL of the supernatants were substituted with 20 μL of solutions of the test compounds, followed with E. coli O127:B8 LPS (100 ng/mL final concentration) after 30 min. Experiments were run in 3 independent replicates.
The activity of lactate dehydrogenase (LDH) in a cell culture medium served as a marker of membrane permeability and cell death. Aliquots of supernatants were taken after 24 h of inoculation with test compounds, mixed with 250 μL of […] NADH solution in 54 mM phosphate-buffered saline (pH 7.5). Then, 25 μL of a 6.48 mM pyruvate solution was added to the mixture. The optical density was followed at a wavelength of 340 nm for 20 min. The MTT test was performed 24 h after the incubation of cells with the tested compounds. […] The plates were shaken at room temperature for 10 min, and the optical density was measured in a microplate reader Infinite M200 PRO (Tecan Group Ltd., Männedorf, Switzerland) at a wavelength of 565 nm.

[2] = system: human fibroblast cells (MRC-5); test: MTT test with human fibroblast cells; assay type: cell-based; settings: read-out: EC50 ± SEM, MRC-5
Method: The studied compounds were added in concentrations of 1, 3, 6, 12, 25, 50, and 100 μM.
Human fibroblast cells (MRC-5) were used in this study. The cells were cultured in the DMEM medium that contained 10% embryonic calf serum in a CO2 incubator at 37 °C. The tested compounds were dissolved in DMSO and added to the cellular culture at the required concentrations. Three wells were used for each concentration. The cells that were incubated without the compounds were used as a negative control, and doxorubicin was used as the positive one. Cells were placed on 96-well microliter plates and cultivated at 37 °C in 5% CO2/95% air for 72 h. The cell viability was assessed through an MTT (3-(4,5-dimethylthiazol-2-yl)-2,5-phenyl-2H-tetrazolium bromide) conversion assay. A total of 1% MTT was added to each well. Three hours later, isopropanol was added and mixed for 15 min. Optical density (OD) of the samples was measured on a ThermoFischer multi-well spectrophotometer at a wavelength of 450 nm. […] The experimental results are given as average values obtained from three independently conducted experiments.

[3] = system: C57bl/6j peritoneal macrophages; test: MTT cytotoxicity on peritoneal macrophages; assay type: cell-based, mice; settings: Mus musculus, Peritoneal macrophage, read-out: EC50 ± SEM, C57bl/6j
Method: as §1
(§2) The activity of lactate dehydrogenase (LDH) in a cell culture medium served as a marker of membrane permeability and cell death. Aliquots of supernatants were taken after 24 h of inoculation with test compounds, mixed with 250 μL of […] NADH solution in 54 mM phosphate-buffered saline (pH 7.5). Then, 25 μL of a 6.48 mM pyruvate solution was added to the mixture. The optical density was followed at a wavelength of 340 nm for 20 min. The MTT test was performed 24 h after the incubation of cells with the tested compounds. Briefly, 20 μL of MTT solution was added to each well and incubated at 37 °C in a humidified atmosphere containing 5% CO2 for 4 h. The culture medium was aspirated, the cells were lysed and formazan crystals dissolved in 150 μL of DMSO. The plates were shaken at room temperature for 10 min, and the optical density was measured in a microplate reader Infinite M200 PRO (Tecan Group Ltd., Männedorf, Switzerland) at a wavelength of 565 nm.

[4] = MTT cytotoxicity on peritoneal macrophages; assay type: cell-based, mice; settings: male, C57bl/6j, mouse, 24 h incubation, read-out: MTT CC50 ± SE
Method: as §1, §2

[5] = system: LPS-stimulated C57bl/6j peritoneal macrophages; test: Suppression of NO synthesis in LPS-stimulated peritoneal macrophages (Griess); assay type: cell-based, mice; settings: for IC50: Mus musculus, Peritoneal macrophage, read-out: NO Synthesis, IC50 ± SE
Description: For screening designed compounds according to their probable ability to limit inflammation, we used a test on the inhibition of LPS-induced activation of primary murine macrophages. The most prominent anti-inflammatory activity, defined as the suppression of nitric oxide synthesis by LPS-stimulated macrophages, was evident for compounds 4a and 5b. At the same time, for 4a, the cytotoxic concentration was 4.7–18.4 times higher than the effective anti-inflammatory concentration. […] According to the data obtained, there is no direct correlation between the efficiency of the inhibition of sEH and NO synthesis, which requires further studies of the anti-inflammatory activity of the investigated compounds.
as §1
The accumulation of nitrite anion (a stable decomposition product of NO produced by iNOS) in the supernatants was determined using a standard Griess reagent. Briefly, 50 μL of supernatants collected 22 h after incubation of PM with the test and control compounds were mixed with 50 μL of 1% sulfonamide in 2.5% H3PO4 and 50 μL of 0.1% N-(1-naphthyl) ethylenediamine in 2.5% H3PO4. After incubation at 23 °C for 10 min. in an orbital shaker, the optical density was determined at a wavelength of 550 nm with a microplate reader Infinite M200 PRO (Tecan, Austria).

human recombinant sEH = target: T1, human recombinant sEH (Homo sapiens, UniProt P34913); test: Human sEH inhibition, kinetic fluorescent assay; assay type: biochemical; settings: kinetic fluorescent assay; means of three separate experiments; read-out: Human sEH IC50
T1 sequence (P34913 1-555): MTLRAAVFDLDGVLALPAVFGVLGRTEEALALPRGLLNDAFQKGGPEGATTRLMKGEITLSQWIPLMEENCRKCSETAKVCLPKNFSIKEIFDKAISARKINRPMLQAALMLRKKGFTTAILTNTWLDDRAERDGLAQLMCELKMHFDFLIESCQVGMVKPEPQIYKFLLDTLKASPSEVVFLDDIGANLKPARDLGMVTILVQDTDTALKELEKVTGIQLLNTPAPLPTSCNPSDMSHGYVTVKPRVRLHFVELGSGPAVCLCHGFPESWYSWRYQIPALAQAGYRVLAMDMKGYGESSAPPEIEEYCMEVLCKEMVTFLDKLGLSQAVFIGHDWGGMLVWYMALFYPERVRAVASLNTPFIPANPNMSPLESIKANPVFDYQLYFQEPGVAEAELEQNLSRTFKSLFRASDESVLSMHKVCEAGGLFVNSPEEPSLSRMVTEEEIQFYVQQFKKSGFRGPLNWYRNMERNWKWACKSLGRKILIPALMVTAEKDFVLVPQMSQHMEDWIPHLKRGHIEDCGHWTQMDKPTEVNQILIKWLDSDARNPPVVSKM

E. coli PQ37 = test: SOS chromotest; assay type: cell-based; settings: induction factor
Method: For the final safety check of selenoureas, the SOS chromotest was carried out. […] The results are presented as the mean value of induction factor I (c) ± SEM based on the results of three independent experiments, each of which included three replicates (Table 5).
The SOS chromotest was carried out according to the standard procedure, with recommended additions. The E. coli PQ37 strain was provided by P. Quillardet (Paris, France). The test compounds were dissolved in dimethyl sulfoxide (DMSO) (also used as a negative control) and added to the bacterial medium in the required concentrations; the concentration of the injected solutions was 1% by volume.

[6] = Solubility in sodium phosphate buffer; assay type: physicochemical; settings: aqueous buffer, kinetic from dmso stock; sodium phosphate buffer (pH 7.4, 0.1 M) containing 1% DMSO
Method: To our knowledge, no systematic studies of selenoureas as sEH inhibitors have been performed previously. The potency of the compounds was determined against the human recombinant sEH and their solubility assessed in phosphate-buffered saline (Table 1).

Structure (SMILES)	IC50 (human recombinant sEH) [nM]	melting point [°C]	solubility [6] [µM]	other results
[Se]=C(NCc1ccccc1)NCC12CC3CC(CC(C3)C1)C2 [5b, 1-[(Adamantan-1-yl)methyl]-3-benzylselenourea]	200	158 to 159	–	CC50 at 24 h [1]: 20400 ± 5300 nM; EC50 ([2]; MRC5, 72 h): 3040 ± 660 nM; EC50 [3]: 17700 ± 5660 nM; CC50 at 24 h [4]: 17700 ± 5700 nM; cytotoxic concentration versus effective anti-inflammatory concentration ([5]; CC50 (MTT, LDH) over NO synthesis IC50, peritoneal macrophages): comparable; IC50 ([5]; 22 h): 27800 ± 5200 nM; I(c) ± SE, 10 µM (E. coli PQ37; compound 10 µM): 1.12 ± 0.18; I(c) ± SE, 25 µM (E. coli PQ37; compound 25 µM): 0.95 ± 0.13; I(c) ± SE, 50 µM (E. coli PQ37; compound 50 µM): 0.99 ± 0.11; I(c) ± SE, 100 µM (E. coli PQ37; compound 100 µM): 0.97 ± 0.08
CC(NC(=[Se])NCc1ccccc1)C12CC3CC(CC(C3)C1)C2 (centres unmarked) [5c, 1-[1-(Adamantan-1-yl)ethyl]-3-benzylselenourea]	274	154 to 155	110 ± 20 (≈ 41.3 µg/mL)	–
[Se]=C(NCCC12CC3CC(CC(C3)C1)C2)NCc1ccccc1 [5d, 1-[2-(Adamantan-1-yl)ethyl]-3-benzylselenourea]	34.3	142 to 143	140 ± 20 (≈ 52.6 µg/mL)	–
[Se]=C(NCc1ccccc1)Nc1ccc(C23CC4CC(CC(C4)C2)C3)cc1 [5e, 1-[4-(Adamantan-1-yl)phenyl]-3-benzylselenourea]	204	147 to 148	200 ± 20 (≈ 84.7 µg/mL)	–
CC12CC3CC(C)(C1)CC(NC(=[Se])NCc1ccccc1)(C3)C2 [5f, 1-(3,5-Dimethyladamantan-1-yl)-3-benzylselenourea]	48.5	112 to 113	–	–
[Se]=C(NCc1ccccc1)NC1C2CC3CC(C2)CC1C3 (centres unmarked) [5g, 1-(Adamantan-2-yl)-3-benzylselenourea]	120	139 to 140	110 ± 10 (≈ 38.2 µg/mL)	–
C[C@@H]1C[C@H]2[C@@H]3CCC4=CC(=O)C=C[C@]4(C)[C@@]3(F)[C@@H](O)C[C@]2(C)[C@@]1(O)C(=O)CO [Dexamethasone, reference compound]	–	–	–	CC50 at 24 h ([1]; primary peritoneal macrophages): > 100000 nM; EC50 ([3]; MTT, peritoneal macrophages of C57bl/6j mice): > 100000 nM; CC50 at 24 h ([4]; primary peritoneal macrophages): > 100000 nM; IC50 ([5]; LPS 100 ng/mL, supernatants after 22 h): 3 ± 1 nM
CC(=O)N1CCC(NC(=O)NC23CC4CC(CC(C4)C2)C3)CC1 [compound 1153, reference compound]	–	–	970 ± 60 (≈ 310 µg/mL)	–
COc1cccc2c1C(=O)c1c(O)c3c(c(O)c1C2=O)C[C@@](O)(C(=O)CO)C[C@@H]3O[C@H]1C[C@H](N)[C@H](O)[C@H](C)O1 [doxorubicin, reference compound]	–	–	–	EC50 ([2]; MRC5, MTT, 72 h): 2410 ± 150 nM
